Results taken from patent publication US20090106858A1, “Isolation and Characterization of the Csb3-1 Mutant of Arabidopsis Thaliana and Use Thereof as a Regulator of Resistance in Plants to Diseases Caused by Biotrophic Pathogens” (priority 2005, published 2009).
Entries after “also recorded” stand apart in the source; their conditions may differ.

How the values were obtained:
P69C-GUS [1] = details: wild Arabidopsis plants, local application (Jordá et al., 2000); cited from earlier work
[2] = system: Pseudomonas syringae pv. tomato DC3000; test: Pst DC3000 bacterial growth in Arabidopsis seedlings sprayed with phosmidomicine before inoculation; type: in vivo, Arabidopsis thaliana
Excerpt: An increase in substrate (MEcPP) accumulation of the CSB3/HDS enzyme or of any of the intermediate metabolic products that precede MEcPP accumulation in the MEP pathway (FIG. 6) could be responsible for the increased resistance of csb3-1 plants. Alternatively, a decrease of product synthesis (HMBPP) of the same enzyme could compromise the synthesis and accumulation of final products (IPP and DMAPP) (FIG. 6) that in turn could compromise the later biosynthesis of the different isoprenoids that must be derived from the MEP pathway. This last possibility can also be responsible for the resistance increase of the csb3-1 plants. In order to study any of these possibilities the impact of an inhibitor in the MEP pathway for increased resistance of csb3-1 plants to Pst DC3000 was studied. To approach the question in this manner phosmidomicine [3-(N-formil-N-hydroxyamino)-propylphosphonic acid] was used as well as a DXR competitive inhibitor, the enzyme that controls the second stage involved in the MEP pathway (FIG. 6) and reduces the levels of the final products obtained by this pathway (that is, IPP and DMAPP) (Schwender, J., Muller, C., Zeidler, J., and Lichtenthaler, H. K. (1999). Cloning and heterologous expression of a cDNA encoding 1-deoxy-D-xylulose-5 phosphate reductoisomerase of Arabidopsis thaliana. FEBS Lett. 455, 140-144; Laule, O., Furholz, A., Chang, H., Zhu, T., Wang, X., Heifetz, P. B., Gruissem, W., and Lange, M. (2003). Crosstalk between cytosolic and plastidial pathways of isoprenoid biosynthesis in Arabidopsis thaliana. Proc. Natl. Acad. Sci. USA 100, 6866-6871). In order to separate this response from the response derived from an arrest of the chloroplast development, phosmidomicine treatments were applied in much smaller dosages and during smaller periods of times than those used experimentally by others (Laule et al., 2003). Wild seedlings and csb3-1 seedlings were sprayed once with a 25 μM or a 50 μM dilution of phosmidomicine 48 hours and 24 hours before inoculation with Pst DC3000 and the subsequent bacterial growth was recorded in inoculated plants at 0.3 and 5 d.p.i. Treated plants were also studied to determine the effect on the normal expression of the P69C-GUS gene. […] Greater dosages of this inhibitor were not tested, since they could have a collateral developmental and/or homeostatic effect in the chloroplast that could lead to undesired side effects.
FIG. 8. […] The plants were exposed to Pst DC3000 and the pathogen's growth was recorded at days 0, 3 and 5 after inoculation (dpi). • (B) The effect of the phosmidomicine treatment (25 μM, treated as described in point (A) on the constitutive expression of P69C-GUS in csb3-1 seedlings (right) as compared with csb3-1 seedlings treated with the buffer solution alone (left). • (C) The effect of the phosmidomicine treatment (25 μM, treated as described in point (A) on the constitutive expression of SA regulated marker genes in csb3-1 seedlings of Arabidopsis as compared with csb3-1 seedlings treated with the buffer solution alone.
Pseudomonas syringae pv. tomato DC3000 was grown and was then prepared to be inoculated as previously described (Mayda et al., 2000). […] A high throughput method for quantifying growth of phytopathogenic bacteria in Arabidopsis thaliana. […]

P69C-GUS [3] = test: Histochemical GUS staining of P69C-GUS indicator gene expression; type: in vivo, Arabidopsis thaliana; details: csb3-1 seedlings, 25 μM
Procedure: (§1) FIG. 8. Pharmacological complementation with phosmidomicine of the resistance increase in csb3-1 plants. • (A) Wild seedlings (wt) and csb3-1 seedlings of Arabidopsis were sprayed once at 48 hours and 24 hours before exposing them to Pst DC3000 with a buffer solution complemented with 25 μM or 50 μM dilution (+phosm) the controls were treated in a similar manner with buffer solution alone. The plants were exposed to Pst DC3000 and the pathogen's growth was recorded at days 0, 3 and 5 after inoculation (dpi). • (B) The effect of the phosmidomicine treatment (25 μM, treated as described in point (A) on the constitutive expression of P69C-GUS in csb3-1 seedlings (right) as compared with csb3-1 seedlings treated with the buffer solution alone (left). • (C) The effect of the phosmidomicine treatment (25 μM, treated as described in point (A) on the constitutive expression of SA regulated marker genes in csb3-1 seedlings of Arabidopsis as compared with csb3-1 seedlings treated with the buffer solution alone.
The mutant line csb3-1 used in these experiments had been subjected to backcrossing at least four times with the original wild line. Plants were made to grow in a growth chamber (19-23° C., fluorescent light at 100 μEm^−2 seg^−1) in a cycle of 10 hours of light to 14 hours of darkness. […]

[4] = system: PR-1 and GST6 marker genes; test: RT-PCR analysis of SA regulated marker genes PR-1 and GST6; type: in vivo, Arabidopsis thaliana; details: csb3-1 seedlings, 25 μM
Procedure: as §1
To analyze the level of genic expression by inverse transcriptase mediated PCR, the total RNA samples from leaf tissue were prepared using the Totally RNA kit made by Ambion (Austin, Tex.). Inverse transcription was done using the RT kit for PCR made by Clontech (Palo Alto, Calif.). […]

O=C(O)c1ccccc1O [SA, Salicylic acid]
expression of P69C-GUS after local application (P69C-GUS [1]): induces the expression of the P69C-GUS

O=CN(O)CCCP(=O)(O)O [phosmidomicine, 3-(N-formil-N-hydroxyamino)-propylphosphonic acid]
effect on increased resistance of csb3-1 plants to Pst DC3000 (bacterial growth) ([2]; csb3-1 plants, 5 μM treatments): provoked a reduction in the increased resistance of the csb3-1 plants that was only observed 5 days after inoculation
complementation of the resistance increase phenotype associated to csb3-1 ([2]; csb3-1 plants, summary statement): complement completely the resistance increase phenotype associated to csb3-1
effect on increased resistance of csb3-1 plants to Pst DC3000 (bacterial growth) ([2]; csb3-1 seedlings, one 50 μM treatment): completely suppressed the resistance increase attributed to the csb3-1 mutation
effect on increased resistance of csb3-1 plants to Pst DC3000 (bacterial growth) ([2]; csb3-1 seedlings, sprayed once with 25 μM 48 h and 24 h before inoculation): noticeably reduce resistance increase to Pst DC3000
effect on normal resistance of wild plants to Pst DC3000 (bacterial growth) ([2]; wild plants, 50 μM): made the plants more susceptible to this virulent pathogen; also recorded: resulted in greater rates of bacterial growth
effect on constitutive expression of the P69C-GUS transgene (P69C-GUS [3]): regulation by reduction of the constitutive expression of the P69G-GUS transgene
effect on constitutive expression of PR-1 and GST6 marker genes [4]: regulation by reduction of the constitutive expression
